# Assay results published in ChEMBL document CHEMBL3885881, “DrugMatrix”.
# Species: Rattus norvegicus
# Test: DrugMatrix - Regimen: Daily Repeat
# Type: toxicity, organism-based, Sprague-Dawley
# Parameters: regimen Daily Repeat, gender Male, age 6-8 weeks
# Conditions: in vivo, po, 739 mg/kg, route oral GAVAGE, dose level High, vehicle 100 % WATER; for ABSOLUTE BASOPHIL / ABSOLUTE EOSINOPHIL / ABSOLUTE LYMPHOCYTE / ABSOLUTE MONOCYTE / ABSOLUTE SEGMENTED NEUTROPHIL / BASOPHIL / EOSINOPHIL / ERYTHROCYTE COUNT / HEMATOCRIT / HEMOGLOBIN / LEUKOCYTE COUNT / LYMPHOCYTE / MEAN CORPUSCULAR HEMOGLOBIN / MEAN CORPUSCULAR HEMOGLOBIN CONCENTRATION / MEAN CORPUSCULAR VOLUME / MONOCYTE / NEUTROPHIL / NUCLEATED RED BLOOD CELLS / PLATELET COUNT: tissue Blood; for ALANINE AMINOTRANSFERASE / ALBUMIN / ALKALINE PHOSPHATASE / ASPARTATE AMINOTRANSFERASE / BLOOD UREA NITROGEN / CARBON DIOXIDE / CHLORIDE / CHOLESTEROL / CREATINE PHOSPHOKINASE / CREATININE / GLUCOSE / LACTATE DEHYDROGENASE / LIPASE / PHOSPHORUS / POTASSIUM / SODIUM / TOTAL BILIRUBIN / TOTAL PROTEIN / URIC ACID: tissue Plasma
smiles,measurement,setting,value
C[C@H]1COc2c(N3CCN(C)CC3)c(F)cc3c(=O)c(C(=O)O)cn1c23.C[C@H]1COc2c(N3CCN(C)CC3)c(F)cc3c(=O)c(C(=O)O)cn1c23.O [LEVOFLOXACIN],ABSOLUTE BASOPHIL,"72 h, time 3 day",0 CELLS/uL
same,ABSOLUTE EOSINOPHIL,"72 h, time 3 day",60.67 CELLS/uL
same,ABSOLUTE LYMPHOCYTE,"72 h, time 3 day",15481 CELLS/uL
same,ABSOLUTE MONOCYTE,"72 h, time 3 day",289.33 CELLS/uL
same,ABSOLUTE SEGMENTED NEUTROPHIL,"72 h, time 3 day",1169 CELLS/uL
same,BASOPHIL,"72 h, time 3 day",0%
same,EOSINOPHIL,"72 h, time 3 day",0.33%
same,ERYTHROCYTE COUNT,"72 h, time 3 day",5.52 x10E6/uL
same,HEMATOCRIT,"72 h, time 3 day",35.23%
same,HEMOGLOBIN,"72 h, time 3 day",13.27 G/DL
same,LEUKOCYTE COUNT,"72 h, time 3 day",17 x10E3/uL
same,LYMPHOCYTE,"72 h, time 3 day",91%
same,MEAN CORPUSCULAR HEMOGLOBIN,"72 h, time 3 day",24.03 pg
same,MEAN CORPUSCULAR HEMOGLOBIN CONCENTRATION,"72 h, time 3 day",37.67 G/DL
same,MEAN CORPUSCULAR VOLUME,"72 h, time 3 day",63.8 fL
same,MONOCYTE,"72 h, time 3 day",1.67%
same,NEUTROPHIL,"72 h, time 3 day",7%
same,NUCLEATED RED BLOOD CELLS,"72 h, time 3 day",0 /100WBC
same,PLATELET COUNT,"72 h, time 3 day",1423.67 x10E3/uL
same,ALANINE AMINOTRANSFERASE,"72 h, time 3 day",46.33 u/L
same,ALBUMIN,"72 h, time 3 day",4.1 G/DL
same,ALKALINE PHOSPHATASE,"72 h, time 3 day",308 u/L
same,ASPARTATE AMINOTRANSFERASE,"72 h, time 3 day",72.67 u/L
same,BLOOD UREA NITROGEN,"72 h, time 3 day",16.33 mg/dL
same,CARBON DIOXIDE,"72 h, time 3 day",26.67 mmol/L
same,CHLORIDE,"72 h, time 3 day",104.33 MEQ/L
same,CHOLESTEROL,"72 h, time 3 day",82.33 mg/dL
same,CREATINE PHOSPHOKINASE,"72 h, time 3 day",201.67 u/L
same,CREATININE,"72 h, time 3 day",0.14 mg/dL
same,GLUCOSE,"72 h, time 3 day",154.33 mg/dL
same,LACTATE DEHYDROGENASE,"72 h, time 3 day",124 u/L
same,LIPASE,"72 h, time 3 day",8.67 u/L
same,PHOSPHORUS,"72 h, time 3 day",11.47 mg/dL
same,POTASSIUM,"72 h, time 3 day",6.3 MEQ/L
same,SODIUM,"72 h, time 3 day",146.37 MEQ/L
same,TOTAL BILIRUBIN,"72 h, time 3 day",0.17 mg/dL
same,TOTAL PROTEIN,"72 h, time 3 day",5.97 G/DL
same,URIC ACID,"72 h, time 3 day",1.7 mg/dL
same,ABSOLUTE BASOPHIL,"120 h, time 5 day",0 CELLS/uL
same,ABSOLUTE EOSINOPHIL,"120 h, time 5 day",0 CELLS/uL
same,ABSOLUTE LYMPHOCYTE,"120 h, time 5 day",15118 CELLS/uL
same,ABSOLUTE MONOCYTE,"120 h, time 5 day",376 CELLS/uL
same,ABSOLUTE SEGMENTED NEUTROPHIL,"120 h, time 5 day",706 CELLS/uL
same,BASOPHIL,"120 h, time 5 day",0%
same,EOSINOPHIL,"120 h, time 5 day",0%
same,ERYTHROCYTE COUNT,"120 h, time 5 day",6.32 x10E6/uL
same,HEMATOCRIT,"120 h, time 5 day",38.53%
same,HEMOGLOBIN,"120 h, time 5 day",14.33 G/DL
same,LEUKOCYTE COUNT,"120 h, time 5 day",16.2 x10E3/uL
same,LYMPHOCYTE,"120 h, time 5 day",93.33%
same,MEAN CORPUSCULAR HEMOGLOBIN,"120 h, time 5 day",22.7 pg
same,MEAN CORPUSCULAR HEMOGLOBIN CONCENTRATION,"120 h, time 5 day",37.2 G/DL
same,MEAN CORPUSCULAR VOLUME,"120 h, time 5 day",61.03 fL
same,MONOCYTE,"120 h, time 5 day",2.33%
same,NEUTROPHIL,"120 h, time 5 day",4.33%
same,NUCLEATED RED BLOOD CELLS,"120 h, time 5 day",0.33 /100WBC
same,PLATELET COUNT,"120 h, time 5 day",1446 x10E3/uL
same,ALANINE AMINOTRANSFERASE,"120 h, time 5 day",51.67 u/L
same,ALBUMIN,"120 h, time 5 day",4.27 G/DL
same,ALKALINE PHOSPHATASE,"120 h, time 5 day",400 u/L
same,ASPARTATE AMINOTRANSFERASE,"120 h, time 5 day",69.33 u/L
same,BLOOD UREA NITROGEN,"120 h, time 5 day",16.33 mg/dL
same,CARBON DIOXIDE,"120 h, time 5 day",25.67 mmol/L
same,CHLORIDE,"120 h, time 5 day",105.33 MEQ/L
same,CHOLESTEROL,"120 h, time 5 day",69.67 mg/dL
same,CREATINE PHOSPHOKINASE,"120 h, time 5 day",212 u/L
same,CREATININE,"120 h, time 5 day",0.19 mg/dL
same,GLUCOSE,"120 h, time 5 day",191.33 mg/dL
same,LACTATE DEHYDROGENASE,"120 h, time 5 day",130.33 u/L
same,LIPASE,"120 h, time 5 day",9 u/L
same,PHOSPHORUS,"120 h, time 5 day",14.27 mg/dL
same,POTASSIUM,"120 h, time 5 day",6.6 MEQ/L
same,SODIUM,"120 h, time 5 day",147.87 MEQ/L
same,TOTAL BILIRUBIN,"120 h, time 5 day",0.17 mg/dL
same,TOTAL PROTEIN,"120 h, time 5 day",6.23 G/DL
same,URIC ACID,"120 h, time 5 day",2.37 mg/dL
